Source: patent publication US20180071354A1, “SELECTIVE BREEDING METHOD OF ANTITUMOR/ANTICANCER CAMELLIA SINENSIS STRAIN, AND TEA PRODUCT OF SUCH STRAIN” (FUJIAN AGRICULTURE AND FORESTRY UNIVERSITY, priority 2015, published 2018)
Converted amounts (≈) assume the structure as drawn.

Key:
Assay type in all cases: cell-based
[1] = test system: human ovarian cancer cell line SK-OV-3; assay: In vitro antitumor/anticancer testing (CCK-8), SK-OV-3; details: 48 h
Protocol: (§1) Each of Tea Product 1 and Conventional Tea Product obtained in section A of this example was used to prepare test tea samples according to the method described below. A proper amount of the respective tea product was added into sterile water to prepare a stock solution with a concentration of 100 mg/mL, followed by using a membrane filter with a pore size of 0.22 μm to conduct vacuum filtration and sterilization. The resulting stock solution was diluted with a respective complete medium shown in Table 3 below to form test tea samples with different concentrations. In other words, the thus obtained test tea samples to be used for treating a respective cancer/tumor cell line shown in Table 3 were prepared using the same complete medium as that for the respective cancer/tumor cell line. […] Specifically, each of the aforesaid commercially available agents was subjected to the method described below to prepare comparative test samples. A proper amount of a respective commercially available agent was dissolved in phosphate-buffered saline (PBS) to prepare a stock solution with a concentration of 5 mg/mL, followed by using a membrane filter with a pore size of 0.22 μm to conduct vacuum filtration and sterilization. The resulting stock solution was diluted with a respective complete medium shown in Table 3 below to form comparative test samples with different concentrations. To be specific, the comparative test samples prepared from the respective commercially available agent have the concentrations shown in Table 2 below. The thus obtained comparative test samples to be used for treating a respective cancer/tumor cell line shown in Table 3 were prepared using the same complete medium as that for the respective cancer/tumor cell line. […] The cultivation of each cancer/tumor cell line is described as follows. […] Afterwards, a cell suspension having a cell density of 1.0×10^4 cells/mL was prepared. […] As experimental groups, the tumor/cancer cells of each cell line were treated with the test tea samples prepared from one or more of the tea products and the comparative test samples prepared from one or more of the commercially available agents as obtained in section B of this example (for more detailed information about the tea product(s) and the commercially available product (s) used to treat each cell line, please see Table 4 below). To be specific, 6 to 10 test tea samples prepared from the same tea product and having different concentrations, as well as 6 to 10 comparative test samples prepared from the same commercially available agent and having different concentrations, were utilized to treat the tumor/cancer cells of each cell line. For each experimental group, 6 repetitions of tumor/cancer treatment were performed. For the control group, 100 μL of PBS was added to a well containing the medium and the cancer/tumor cells of the respective cell line. For the blank group, 100 μL of PBS was added to a well containing a complete medium the same as that used for cultivation of the cancer/tumor cells of the respective cell line. After the treatment described above, cultivation was conducted in an incubator (37° C., 100% relative humidity, 5% CO2) for 48 hours. Subsequently, the liquid containing the medium and the sample in the well was removed, and a respective complete medium (shown in Table 3 above) containing 10% CCK-8 (Cell Counting Kit-8)(Dojindo Molecular Technologies, Inc., Cat. No. CK04-13) was added. Cultivation was performed in an incubator (37° C.) for 2 to 4 hours, followed by gently shaking.

[2] = test system: human lung cancer cell line A549; assay: In vitro antitumor/anticancer testing (CCK-8), A549; details: 48 h
Protocol: as §1

[3] = test system: human glioblastoma cell line U-87MG; assay: In vitro antitumor/anticancer testing (CCK-8), U-87MG; details: 48 h
Protocol: as §1

[4] = test system: human cervical cancer cell line Hela; assay: In vitro antitumor/anticancer testing (CCK-8), Hela; details: 48 h
Protocol: as §1

[5] = test system: human mammary gland/duct cancer cell line BT-474; assay: In vitro antitumor/anticancer testing (CCK-8), BT-474; details: Homo sapiens, BT-474, 48 h
Protocol: as §1

[6] = test system: human prostate cancer cell line PC-3; assay: In vitro antitumor/anticancer testing (CCK-8), PC-3; details: Homo sapiens, 48 h
Protocol: Each of Tea Product 1 and Conventional Tea Product obtained in section A of this example was used to prepare test tea samples according to the method described below. A proper amount of the respective tea product was added into sterile water to prepare a stock solution with a concentration of 100 mg/mL, followed by using a membrane filter with a pore size of 0.22 μm to conduct vacuum filtration and sterilization. The resulting stock solution was diluted with a respective complete medium shown in Table 3 below to form test tea samples with different concentrations. In other words, the thus obtained test tea samples to be used for treating a respective cancer/tumor cell line shown in Table 3 were prepared using the same complete medium as that for the respective cancer/tumor cell line.
Specifically, each of the aforesaid commercially available agents was subjected to the method described below to prepare comparative test samples. A proper amount of a respective commercially available agent was dissolved in phosphate-buffered saline (PBS) to prepare a stock solution with a concentration of 5 mg/mL, followed by using a membrane filter with a pore size of 0.22 μm to conduct vacuum filtration and sterilization. The resulting stock solution was diluted with a respective complete medium shown in Table 3 below to form comparative test samples with different concentrations. To be specific, the comparative test samples prepared from the respective commercially available agent have the concentrations shown in Table 2 below. The thus obtained comparative test samples to be used for treating a respective cancer/tumor cell line shown in Table 3 were prepared using the same complete medium as that for the respective cancer/tumor cell line.
The following cancer/tumor cells purchased from Chinese Academy of Sciences, Shanghai Institutes for Biological Sciences, Institute of Biochemistry and Cell Biology were used for in vitro antitumor/anticancer testing: human liver cancer cell line HepG2, human ovarian cancer cell line SK-OV-3, human cervical cancer cell line Hela, human lung cancer cell line A549, human glioblastoma cell line U-87MG, human mammary gland/duct cancer cell line BT-474, human prostate cancer cell line PC-3, human leukemia cell line HL-60, human gastric cancer cell line SMMC-7721, human colon cancer cell line HCT-116, human squamous cell carcinoma cell line A431, human leukemia cell line K562, human pancreatic cancer cell line PANC-1, and human gastric cancer cell line BGC-823.
The cultivation of each cancer/tumor cell line is described as follows. The cancer/tumor cancer cells were cultivated in the respective complete medium supplemented with 100 μg/mL penicillin and 100 μg/mL streptomycin in an incubator (37° C., 100% relative humidity, 5% CO2). When adherent cancer/tumor cells reached 80% confluence during the log-phase, cell detachment was conducted using 0.6 mL of 0.3% trypsin. Afterwards, a cell suspension having a cell density of 1.0×10^4 cells/mL was prepared. 100 μL of the cell suspension (i.e. 1000 cancer/tumor cells) was added into wells of a 96-well plate (Cat. No. 3599, Corning Costar), followed by cultivation in an incubator (37° C., 100% relative humidity, 5% CO2) for 24 hours.
As experimental groups, the tumor/cancer cells of each cell line were treated with the test tea samples prepared from one or more of the tea products and the comparative test samples prepared from one or more of the commercially available agents as obtained in section B of this example (for more detailed information about the tea product(s) and the commercially available product (s) used to treat each cell line, please see Table 4 below). To be specific, 6 to 10 test tea samples prepared from the same tea product and having different concentrations, as well as 6 to 10 comparative test samples prepared from the same commercially available agent and having different concentrations, were utilized to treat the tumor/cancer cells of each cell line. […]

[7] = test system: human leukemia cell line HL-60; assay: In vitro antitumor/anticancer testing (CCK-8), HL-60; details: Homo sapiens, HL-60, 48 h
Protocol: as §1

[8] = 0.125 μg/mL, read-out: Percent growth inhibition
[9] = 0.25 μg/mL, read-out: Percent growth inhibition
[10] = 0.5 μg/mL, read-out: Percent growth inhibition
[11] = 1 μg/mL, read-out: Percent growth inhibition
[12] = 2 μg/mL, read-out: Percent growth inhibition
[13] = 4 μg/mL, read-out: Percent growth inhibition
[14] = 8 μg/mL, read-out: Percent growth inhibition
[15] = 16 μg/mL, read-out: Percent growth inhibition
[16] = 32 μg/mL, read-out: Percent growth inhibition

Compound: N.N.[Cl][Pt][Cl] [Cisplatin]
- Percent growth inhibition ([1]; 0.0625 μg/mL): 5.63%
- Percent growth inhibition ([1]; 0.125 μg/mL): 6.86%
- Percent growth inhibition ([1]; 0.25 μg/mL): 13.36%
- Percent growth inhibition ([1]; 0.5 μg/mL): 28.16%
- Percent growth inhibition ([1]; 1 μg/mL): 51.92%
- Percent growth inhibition ([1]; 2 μg/mL): 65.87%
- Percent growth inhibition ([1]; 4 μg/mL): 81.38%
- Percent growth inhibition ([1]; 8 μg/mL): 88.36%
- Percent growth inhibition ([1]; 16 μg/mL): 83.65%
- IC50 ([1]; SK-OV-3): IC50 (μg/mL) = 1.112
- Percent growth inhibition ([2]; 0.125 μg/mL): 6.73%
- Percent growth inhibition ([2]; 0.25 μg/mL): 8.55%
- Percent growth inhibition ([2]; 0.5 μg/mL): 14.21%
- Percent growth inhibition ([2]; 1 μg/mL): 29.60%
- Percent growth inhibition ([2]; 3 μg/mL): 88.98%
- Percent growth inhibition ([2]; 4 μg/mL): 57.57%
- Percent growth inhibition ([2]; 7 μg/mL): 36.60%
- Percent growth inhibition ([2]; 16 μg/mL): 97.45%
- IC50 ([2]; A549): IC50 (μg/mL) = 2.503
- Percent growth inhibition ([3]; 0.0625 μg/mL): 2.27%
- Percent growth inhibition ([3]; 0.125 μg/mL): 1.91%
- Percent growth inhibition ([3]; 0.25 μg/mL): 0.10%
- Percent growth inhibition ([3]; 0.5 μg/mL): 2.72%
- Percent growth inhibition ([3]; 1 μg/mL): 20.84%
- Percent growth inhibition ([3]; 2 μg/mL): 43.00%
- Percent growth inhibition ([3]; 4 μg/mL): 63.60%
- Percent growth inhibition ([3]; 8 μg/mL): 85.10%
- Percent growth inhibition ([3]; 16 μg/mL): 76.01%
- IC50 ([3]; U-87MG): IC50 (μg/mL) = 2.751
- Percent growth inhibition ([4]; 0.0625 μg/mL): −3.05%
- Percent growth inhibition ([4]; 0.125 μg/mL): −7.31%
- Percent growth inhibition ([4]; 0.25 μg/mL): −11.93%
- Percent growth inhibition ([4]; 0.5 μg/mL): −33.69%
- Percent growth inhibition ([4]; 1 μg/mL): −29.75%
- Percent growth inhibition ([4]; 2 μg/mL): 16.62%
- Percent growth inhibition ([4]; 4 μg/mL): 90.1%
- Percent growth inhibition ([4]; 8 μg/mL): 98.3%
- Percent growth inhibition ([4]; 16 μg/mL): 98.98%
- IC50 ([4]; Hela): IC50 (μg/mL) = 2.656

Compound: COc1cccc2c1C(=O)c1c(O)c3c(c(O)c1C2=O)C[C@@](O)(C(=O)CO)C[C@@H]3O[C@H]1C[C@H](N)[C@@H](O)[C@H](C)O1 [Epirubicin]
- inhibition at 0.015625 µg/mL ([5]; 0.015625 μg/mL, read-out: Percent growth inhibition): 8.91%
- inhibition at 0.03125 µg/mL ([5]; 0.03125 μg/mL, read-out: Percent growth inhibition): 1.2%
- inhibition at 0.0625 µg/mL ([5]; 0.0625 μg/mL, read-out: Percent growth inhibition): 2.5%
- inhibition at 0.125 µg/mL [5, 8]: 6.31%
- inhibition at 0.25 µg/mL [5, 9]: 17.4%
- inhibition at 0.5 µg/mL [5, 10]: 22.4%
- inhibition at 1 µg/mL [5, 11]: 33.4%
- inhibition at 2 µg/mL [5, 12]: 53.5%
- inhibition at 4 µg/mL [5, 13]: 72.6%
- IC50 ([5]; read-out: IC50): 1.7 mg/L (≈ 3.14 µM)
- inhibition at 0.125 µg/mL [6, 8]: 32.7%
- inhibition at 0.25 µg/mL [6, 9]: 48%
- inhibition at 0.5 µg/mL [6, 10]: 55.1%
- inhibition at 1 µg/mL [6, 11]: 66.1%
- inhibition at 2 µg/mL [6, 12]: 74%
- inhibition at 4 µg/mL [6, 13]: 82%
- inhibition at 8 µg/mL [6, 14]: 82.8%
- inhibition at 16 µg/mL [6, 15]: 81.6%
- inhibition at 32 µg/mL [6, 16]: 85.6%
- IC50 ([6]; PC-3, read-out: IC50): 0.334 mg/L (≈ 0.614 µM)

Compound: COc1cc([C@@H]2c3cc4c(cc3[C@@H](O[C@@H]3O[C@@H]5CO[C@@H](C)O[C@H]5[C@H](O)[C@H]3O)[C@H]3COC(=O)[C@H]23)OCO4)cc(OC)c1O [Etoposide]
- inhibition at 0.125 µg/mL [7, 8]: 62.4%
- inhibition at 0.25 µg/mL [7, 9]: 73.6%
- inhibition at 0.5 µg/mL [7, 10]: 82.9%
- inhibition at 1 µg/mL [7, 11]: 97.8%
- inhibition at 2 µg/mL [7, 12]: 100%
- inhibition at 4 µg/mL [7, 13]: 100%
- inhibition at 8 µg/mL [7, 14]: 100%
- inhibition at 16 µg/mL [7, 15]: 101%
- inhibition at 32 µg/mL [7, 16]: 100%
- IC50 ([7]; read-out: IC50): 0.0855 mg/L (≈ 0.145 µM)
